Laboratory results as given in ChEMBL document CHEMBL3421614, “Identification of novel aldose reductase inhibitors based on carboxymethylated mercaptotriazinoindole scaffold” (J Med Chem, 2015).

Key:
[1] = target: Aldo-keto reductase family 1 member B1 (Rattus norvegicus, UniProt P07943); test: Inhibition of Wistar rat lens aldose reductase using D,L-glyceraldehyde as substrate incubated for 1 min measured for 4 mins by spectrophotometry
[2] = Inhibition of Wistar rat kidney aldehyde reductase using D-glucuronate as substrate at 10 uM by spectrophotometry
[3] = Inhibition of Wistar rat kidney aldehyde reductase using D-glucuronate as substrate at 100 uM by spectrophotometry
[4] = target: Aldo-keto reductase family 1 member B1 (Rattus norvegicus) (UniProt P07943); test: Inhibition of Wistar rat lens aldose reductase using D,L-glyceraldehyde as substrate at 100 uM incubated for 1 min measured for 4 mins by spectrophotometry
[5] = Octanol-phosphate buffer partition coefficient, log D of the compound at 100 uM at pH 7.4 at RT after 1 hr by shake flask method; format: physicochemical
[6] = target: Aldo-keto reductase family 1 member B10 (Homo sapiens, UniProt O60218); test: Inhibition of human AKR1B10 using D-glucuronate as substrate by spectrophotometry
Sequence of Aldo-keto reductase family 1 member B10 (O60218 whole entry): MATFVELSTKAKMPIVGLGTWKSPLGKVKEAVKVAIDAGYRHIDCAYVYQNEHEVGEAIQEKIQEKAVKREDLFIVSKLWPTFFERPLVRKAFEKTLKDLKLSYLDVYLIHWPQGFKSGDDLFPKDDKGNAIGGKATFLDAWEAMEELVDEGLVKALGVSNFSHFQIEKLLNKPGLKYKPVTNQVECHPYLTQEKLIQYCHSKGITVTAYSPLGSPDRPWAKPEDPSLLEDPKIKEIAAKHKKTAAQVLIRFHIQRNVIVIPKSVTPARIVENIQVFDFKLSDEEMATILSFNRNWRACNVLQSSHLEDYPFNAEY

[7] = target: Aldo-keto reductase family 1 member B1 (Rattus norvegicus) (UniProt P07943); test: Inhibition of Wistar rat lens aldose reductase using D,L-glyceraldehyde as substrate at 10 uM incubated for 1 min measured for 4 mins by spectrophotometry

SMILES	IC50 ([1]; read-out: IC50) [µM]	inhibition [3] [%]	other results
CC(C)(C)C(=O)c1cn(CC(=O)O)c2ccccc12	13.8		
O=C(O)Cn1c2ccccc2c2nnc(Sc3ccccc3F)nc21	2.24		IC50 ([1]; read-out: pIC50 (converted)): 2.19 µM; inhibition [2]: 1.18%
O=C(O)CCn1ccc2ccccc21		11.8	inhibition [4]: 53.5%
O=C(O)Cn1cc(N2CCOCC2)c2ccccc21	34.5	32.5	
CCN(CC)Cc1cn(CC(=O)O)c2ccccc12	30.1	38	
O=C(O)Cn1c2ccccc2c2cn[nH]c(=O)c21	11.5	49	
Sc1nnc2c(n1)[nH]c1ccccc12			inhibition [4]: 4.41%
Cc1cc(C)c(NC(=O)CSc2nnc3c4ccccc4n(CC(=O)O)c3n2)c(C)c1	4.06		inhibition [2]: 23.5%
O=C(O)Cn1cc(Cc2nc3c(F)c(F)cc(F)c3s2)c2ccccc21 [LIDORESTAT]	0.005		
O=C(O)Cn1c2ccccc2c2nc3ccccc3nc21	2.75		
O=C(O)Cn1c2ccccc2c2nn3c(nc4ccccc43)nc21	9.95		inhibition [2]: 15.1%
O=C(O)Cn1c2ccccc2c2nnc(S)nc21			logD at 1 h, 100 µM [5]: -1.9; IC50 [6]: 21.4 µM
Cc1c(CN(C)C)c2ccccc2n1CC(=O)O	42.2	22.3	
O=C(O)Cn1cc(N2CCCC2)c2ccccc21	46.5	19.2	
CCCNC(=O)CSc1nnc2c3cc(C)ccc3n(CC(=O)O)c2n1	0.33		
O=C(O)Cn1ccc2ccccc21	7.3		
CCN(CC)Cc1cn(CCC(=O)O)c2ccccc12		6.65	inhibition [4]: 19.9%
O=C(O)Cn1c2c(c3ccccc31)CCC2	2.87		
O=C(O)CSc1nnc2c(n1)[nH]c1ccccc12			inhibition [7]: 3.46%
CC(C)Sc1nnc2c3ccccc3n(CC(=O)O)c2n1	2.05		
